Laboratory results: patent US20250230193A1, “CYCLIC COMPOUND HAVING SELECTIVE KRAS INHIBITORY EFFECT ON HRAS AND NRAS” (CHUGAI SEIYAKU KABUSHIKI KAISHA, priority 2022, published 2025)

Assays:
[1] = target: GDP-bound NRAS wild-type protein (Homo sapiens, UniProt P01111); assay: Binding to NRAS by surface plasmon resonance (SPR), Single Cycle Kinetics; details: SPR; KD ratio class
[2] = target: GDP-bound HRAS wild-type protein (Homo sapiens, UniProt P01112); assay: Binding to HRAS by surface plasmon resonance (SPR), Single Cycle Kinetics; details: SPR; KD ratio class
[3] = system: human lung cancer strain NCI-H441; assay: cells; details: NCI-H441, 96 h, read-out: NCI-H441 IC50 (nM)

GDP-bound NRAS wild-type protein, sequence (P01111 whole entry): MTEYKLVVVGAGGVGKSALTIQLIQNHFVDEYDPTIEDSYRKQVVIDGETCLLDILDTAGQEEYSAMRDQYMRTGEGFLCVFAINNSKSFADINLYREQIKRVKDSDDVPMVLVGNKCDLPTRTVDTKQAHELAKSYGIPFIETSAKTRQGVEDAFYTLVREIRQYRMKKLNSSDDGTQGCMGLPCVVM
GDP-bound HRAS wild-type protein, sequence (P01112 whole entry): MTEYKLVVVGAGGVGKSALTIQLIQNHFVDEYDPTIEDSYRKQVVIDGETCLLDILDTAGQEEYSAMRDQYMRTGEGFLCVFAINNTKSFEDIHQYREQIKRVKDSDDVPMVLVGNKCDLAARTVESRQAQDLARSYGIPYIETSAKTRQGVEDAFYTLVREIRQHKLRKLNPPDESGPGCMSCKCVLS

| SMILES | NRAS/KRAS (ratio of KD value for GDP-bound NRAS wild-type protein to KD value for KRAS) [1] | HRAS/KRAS (ratio of KD value for GDP-bound HRAS wild-type protein to KD value for KRAS) [2] | IC50 [3] |
| --- | --- | --- | --- |
| CCO[C@@H]1C[C@H]2C(=O)NC3(CCC3)C(=O)N(C)[C@@H](C3CCCC3)C(=O)N(C)[C@H](C(=O)N(C)C)CC(=O)N(C)[C@@H](CC3CCCC3)C(=O)N[C@@H]([C@@H](C)CC)C(=O)N(C)CC(=O)N(C)[C@H]3C/C=C\CCN(C3=O)[C@@H](Cc3ccc(F)cc3C)C(=O)N(C)CC(=O)N[C@@H](CCc3cc(F)c(C(F)(F)F)c(F)c3)C(=O)N2C1 [PP1530] | A (a compound having 10 or more and less than 20 is denoted as A) | B (a compound having 3 or more and less than 10 is denoted as B) | 17.2 nM |
| CCO[C@@H]1C[C@H]2C(=O)NC3(CCC3)C(=O)N(C)[C@@H](C3CCCC3)C(=O)N(C)[C@H](C(=O)N(C)C)CC(=O)N(C)[C@@H](CC(C)C)C(=O)N[C@@H]([C@@H](C)CC)C(=O)N(C)CC(=O)N(C)[C@H]3C/C=C\CCN(C3=O)[C@@H](Cc3ccc(F)cc3C)C(=O)N(C)CC(=O)N[C@@H](CCc3cc(F)c(C(F)(F)F)c(F)c3)C(=O)N2C1 [PP1532] | A (a compound having 10 or more and less than 20 is denoted as A) | B (a compound having 3 or more and less than 10 is denoted as B) | 13.4 nM |
| CCCC[C@H]1C(=O)N[C@@H]([C@@H](C)CC)C(=O)N(C)CC(=O)N(C)[C@H]2C/C=C\CCN(C2=O)[C@@H](Cc2ccc(C(F)(F)F)cc2)C(=O)N(C)CC(=O)N[C@@H](CCc2cc(F)c(C(F)(F)F)c(F)c2)C(=O)N2C[C@H](OCC)C[C@H]2C(=O)NC2(CCC2)C(=O)N(C)[C@@H](C2CCCC2)C(=O)N(C)[C@H](C(=O)N(C)CC)CC(=O)N1C [PP1558] | A (a compound having 10 or more and less than 20 is denoted as A) | B (a compound having 3 or more and less than 10 is denoted as B) | 3.4 nM |
| CCO[C@@H]1C[C@H]2C(=O)NC3(CC(C)(C)C3)C(=O)N(C)[C@@H](C3CCCC3)C(=O)N(C)[C@H](C(=O)N(C)C)CC(=O)N(C)[C@@H](CC)C(=O)N[C@@H]([C@@H](C)CC)C(=O)N(C)CC(=O)N(C)[C@H]3C/C=C\CCN(C3=O)[C@@H](Cc3ccc(C(F)(F)F)cc3)C(=O)N(C)CC(=O)N[C@@H](CCc3ccc(C(F)(F)F)c(OC)c3)C(=O)N2C1 [PP1559] | A (a compound having 10 or more and less than 20 is denoted as A) | A (a compound having 10 or more and less than 20 is denoted as A) | 1.8 nM |
| CCC[C@H]1C(=O)N[C@@H]([C@@H](C)CC)C(=O)N(C)CC(=O)N(C)[C@H]2C/C=C\CCN(C2=O)[C@@H](Cc2ccc(C(F)(F)F)cc2)C(=O)N(C)CC(=O)N[C@@H](CCc2ccc(C(F)(F)F)c(OC)c2)C(=O)N2C[C@H](OCC)C[C@H]2C(=O)NC2(CC(C)(C)C2)C(=O)N(C)[C@@H](C2CCCC2)C(=O)N(C)[C@H](C(=O)N(C)C)CC(=O)N1C [PP1560] | A (a compound having 10 or more and less than 20 is denoted as A) | B (a compound having 3 or more and less than 10 is denoted as B) | 1.8 nM |
| CCCC[C@H]1C(=O)N[C@@H]([C@@H](C)CC)C(=O)N(C)CC(=O)N(C)[C@H]2C/C=C\CCN(C2=O)[C@@H](Cc2ccc(C(F)(F)F)cc2)C(=O)N(C)CC(=O)N[C@@H](CCc2ccc(C(F)(F)F)c(OC)c2)C(=O)N2C[C@H](OCC)C[C@H]2C(=O)NC2(CC(C)(C)C2)C(=O)N(C)[C@@H](C2CCCC2)C(=O)N(C)[C@H](C(=O)N(C)C)CC(=O)N1C [PP1561] | A (a compound having 10 or more and less than 20 is denoted as A) | B (a compound having 3 or more and less than 10 is denoted as B) | 2.7 nM |
| CCO[C@@H]1C[C@H]2C(=O)NC3(CC(C)(C)C3)C(=O)N(C)[C@@H](C3CCCC3)C(=O)N(C)[C@H](C(=O)N(C)C)CC(=O)N(C)[C@@H](CC(C)C)C(=O)N[C@@H]([C@@H](C)CC)C(=O)N(C)CC(=O)N(C)[C@H]3C/C=C\CCN(C3=O)[C@@H](Cc3ccc(C(F)(F)F)cc3)C(=O)N(C)CC(=O)N[C@@H](CCc3ccc(C(F)(F)F)c(OC)c3)C(=O)N2C1 [PP1562] | A (a compound having 10 or more and less than 20 is denoted as A) | A (a compound having 10 or more and less than 20 is denoted as A) | 1.7 nM |
| CCO[C@@H]1C[C@H]2C(=O)NC3(CC(C)(C)C3)C(=O)N(C)[C@@H](C3CCCC3)C(=O)N(C)[C@H](C(=O)N(C)C)CC(=O)N(C)[C@@H](CC3CC3)C(=O)N[C@@H]([C@@H](C)CC)C(=O)N(C)CC(=O)N(C)[C@H]3C/C=C\CCN(C3=O)[C@@H](Cc3ccc(C(F)(F)F)cc3)C(=O)N(C)CC(=O)N[C@@H](CCc3ccc(C(F)(F)F)c(OC)c3)C(=O)N2C1 [PP1563] | A (a compound having 10 or more and less than 20 is denoted as A) | A (a compound having 10 or more and less than 20 is denoted as A) | 2.6 nM |
| CCO[C@@H]1C[C@H]2C(=O)NC3(CC(C)(C)C3)C(=O)N(C)[C@@H](C3CCCC3)C(=O)N(C)[C@H](C(=O)N(C)C)CC(=O)N(C)[C@@H](CC3CCC3)C(=O)N[C@@H]([C@@H](C)CC)C(=O)N(C)CC(=O)N(C)[C@H]3C/C=C\CCN(C3=O)[C@@H](Cc3ccc(C(F)(F)F)cc3)C(=O)N(C)CC(=O)N[C@@H](CCc3ccc(C(F)(F)F)c(OC)c3)C(=O)N2C1 [PP1564] | A (a compound having 10 or more and less than 20 is denoted as A) | A (a compound having 10 or more and less than 20 is denoted as A) | 3 nM |
| CCO[C@@H]1C[C@H]2C(=O)NC3(CC(C)(C)C3)C(=O)N(C)[C@@H](C3CCCC3)C(=O)N(C)[C@H](C(=O)N(C)C)CC(=O)N(C)[C@@H](CC3CCCC3)C(=O)N[C@@H]([C@@H](C)CC)C(=O)N(C)CC(=O)N(C)[C@H]3C/C=C\CCN(C3=O)[C@@H](Cc3ccc(C(F)(F)F)cc3)C(=O)N(C)CC(=O)N[C@@H](CCc3ccc(C(F)(F)F)c(OC)c3)C(=O)N2C1 [PP1565] | A (a compound having 10 or more and less than 20 is denoted as A) | B (a compound having 3 or more and less than 10 is denoted as B) | 6.5 nM |
| CC[C@H](C)[C@@H]1NC(=O)[C@H](CC(C)C)N(C)C(=O)C[C@@H](C(=O)N(C)C)N(C)C(=O)[C@H](C2CCCC2)N(C)C(=O)C2(CC(C)(C)C2)NC(=O)[C@@H]2C[C@@H](F)CN2C(=O)[C@H](CCc2cc(F)c(C(F)(F)F)c(F)c2)NC(=O)CN(C)C(=O)[C@H](Cc2ccc(C(F)(F)F)cc2)N2CC/C=C\C[C@@H](C2=O)N(C)C(=O)CN(C)C1=O [PP1566] | A (a compound having 10 or more and less than 20 is denoted as A) | A (a compound having 10 or more and less than 20 is denoted as A) | 2.3 nM |
| CCO[C@@H]1C[C@H]2C(=O)NC3(CC(C)(C)C3)C(=O)N(C)[C@@H](C3CCCC3)C(=O)N(C)[C@H](C(=O)N(C)C)CC(=O)N(C)[C@@H](CC3CC3)C(=O)N[C@@H]([C@@H](C)CC)C(=O)N(C)CC(=O)N(C)[C@H]3C/C=C\CCN(C3=O)[C@@H](Cc3ccc(C(F)(F)F)cc3)C(=O)N(C)CC(=O)N[C@@H](CCc3cc(F)c(C(F)(F)F)c(F)c3)C(=O)N2C1 [PP1568] | A (a compound having 10 or more and less than 20 is denoted as A) | A (a compound having 10 or more and less than 20 is denoted as A) | 2.2 nM |
| CCCOC[C@H]1C(=O)N[C@@H]([C@@H](C)CC)C(=O)N(C)CC(=O)N(C)[C@H]2C/C=C\CCN(C2=O)[C@@H](Cc2ccc(C(F)(F)F)cc2)C(=O)N(C)CC(=O)N[C@@H](CCc2cc(F)c(C(F)(F)F)c(F)c2)C(=O)N2C[C@H](OCC)C[C@H]2C(=O)NC2(CCC2)C(=O)N(C)[C@@H](C2CCCC2)C(=O)N(C)[C@H](C(=O)N(C)CC)CC(=O)N1C [PP1569] | A (a compound having 10 or more and less than 20 is denoted as A) | B (a compound having 3 or more and less than 10 is denoted as B) | 2.8 nM |
| CC[C@H](C)[C@@H]1NC(=O)[C@H](CC2CC2)N(C)C(=O)C[C@@H](C(=O)N(C)CC)N(C)C(=O)[C@H](C2CCCC2)N(C)C(=O)C2(CC(C)(C)C2)NC(=O)[C@@H]2C[C@@H](F)CN2C(=O)[C@H](CCc2cc(F)c(C(F)(F)F)c(F)c2)NC(=O)CN(C)C(=O)[C@H](Cc2ccc(C(F)(F)F)cc2)N2CC/C=C\C[C@@H](C2=O)N(C)C(=O)CN(C)C1=O [PP1570] | AA (a compound having 20 or more is denoted as AA) | A (a compound having 10 or more and less than 20 is denoted as A) | 2.6 nM |
